This is an account of results in ChEMBL document CHEMBL5257097, “An Isomer of Galidesivir That Potently Inhibits Influenza Viruses and Members of the Bunyavirales Order” (ACS Med Chem Lett, 2023).

Molecules are shown by their SMILES.

One data set has as its system Marburgvirus. Briefly: Antiviral activity against Marburg virus infected in human HeLa cells assessed as reduction in viral cytopathic effect. As to conditions: Orthomarburgvirus. It counts as functional, organism-based.
The subject of data set [1] is Middle East respiratory syndrome-related coronavirus. Briefly: Antiviral activity against MERS-CoV infected in vervet monkey MA-104 cells assessed as reduction in virus-induced cytopathic effect measured after 15 to 30 mins by visual analysis. It counts as functional, organism-based. To be noted: MA104.
The next data set has as its system dengue virus type 2. Kind of data set: Antiviral activity against DENV-2 infected in African green monkey Vero cells assessed as reduction in virus-induced cytopathic effect measured after 15 to 30 mins by neutral red based analysis. The data set is classed as functional, organism-based.
Data set [2] in a line: Cytotoxicity against vervet monkey MA-104 cells infected with MERS-CoV assessed as reduction in cell viability by visual assay. The data set is classed as toxicity, cell-based. To be noted: cercopithecus pygerythrus.
Data set [3] in a line: Cytotoxicity against dog MDCK cells infected with Influenza A virus H1N1 assessed as reduction in cell viability by visual analysis. It counts as toxicity, cell-based, Canis lupus familiaris.
The subject of the next data set is Measles morbillivirus. Briefly: Antiviral activity against Measles virus infected in African green monkey Vero cells assessed as reduction in viral cytopathic effect. The data set is classed as functional, organism-based.
Data set [4] in a line: Selectivity index, ratio of CC50 for cytotoxicity against vervet monkey MA-104 cells infected with MERS-CoV assessed as reduction in cell viability by visual analysis to EC50 for antiviral activity against MERS-CoV infected in vervet monkey MA-104 cells assessed as reduction in virus-induced cytopathic effect by visual analysis. The data set is classed as toxicity, cell-based. To be noted: read-out: Ratio CC50/EC50.

Data set [5] is described as follows: Selectivity index, ratio of CC50 for cytotoxicity against dog MDCK cells infected with Influenza A virus H7N9 assessed as reduction in cell viability by neutral red dye based analysis to EC50 for antiviral activity against Influenza A virus H7N9 infected in dog MDCK cells assessed as inhibition of viral replication by neutral red dye based analysis. It counts as toxicity. To be noted: read-out: Ratio CC50/EC50.

Data set [6] in a line: Selectivity index, ratio of CC50 for cytotoxicity against dog MDCK cells infected with Influenza A virus H7N9 assessed as reduction in cell viability by visual analysis to EC50 for antiviral activity against Influenza A virus H7N9 infected in dog MDCK cells assessed as inhibition of viral replication by visual analysis. To be noted: read-out: Ratio CC50/EC50. It counts as toxicity, cell-based.

Data set [7] has as its system Influenza A virus. Kind of data set: Antiviral activity against Influenza A virus H3N2 infected in dog MDCK cells assessed as inhibition of viral replication measured after 15 to 30 mins by visual analysis. The data set is classed as functional, organism-based.
Data set [8] in a line: Selectivity index, ratio of CC50 for cytotoxicity against dog MDCK cells infected with Influenza B virus assessed as reduction in cell viability by neutral dye based analysis to EC50 for antiviral activity against Influenza B virus infected in dog MDCK cells assessed as inhibition of viral replication by neutral red dye based analysis. The data set is classed as toxicity. To be noted: read-out: Ratio CC50/EC50.

Data set [9] is described as follows: Toxicity in BALB/c mouse infected with influenza A/Ca/04/09 (H1N1) assessed as mortality at 100 mg/kg, ip measured every day for 6 days. To be noted: in vivo, time 6 day, read-out: Activity. It counts as organism-based.
Data set [10] in a line: Cytotoxicity against dog MDCK cells infected with Influenza A virus H7N9 assessed as reduction in cell viability by visual analysis. It counts as toxicity, cell-based, Canis lupus familiaris.
A short description of data set [11]: Selectivity index, ratio of CC50 for cytotoxicity against African green monkey Vero E6 cells infected with Severe fever with thrombocytopenia syndrome virus assessed as reduction in cell viability to EC90 for antiviral activity against Severe fever with thrombocytopenia syndrome virus infected in African green monkey Vero E6 cells assessed as reduction in viral replication. The data set is classed as toxicity, cell-based, Vero C1008.

A short description of data set [12]: Selectivity index, ratio of CC50 for cytotoxicity against dog MDCK cells infected with Influenza A virus H1N1 assessed as reduction in cell viability by visual analysis to EC50 for antiviral activity against Influenza A virus H1N1 infected in dog MDCK cells assessed as inhibition of viral replication by visual analysis. It counts as toxicity, cell-based. As to conditions: read-out: Ratio CC50/EC50.

Data set [13] is described as follows: Selectivity index, ratio of CC50 for cytotoxicity against African green monkey Vero 76 cells infected with Punta Toro virus assessed as reduction in cell viability by neutral red dye based analysis to EC50 for antiviral activity against Punta Toro virus infected in African green monkey Vero 76 cells assessed as reduction in viral replication by neutral red dye based analysis. The data set is classed as toxicity. As to conditions: read-out: Ratio CC50/EC50.

The nature of data set [14]: Selectivity index, ratio of CC50 for cytotoxicity against African green monkey Vero E6 cells infected with Maporal virus assessed as reduction in cell viability to EC90 for antiviral activity against Maporal virus infected in African green monkey Vero E6 cells assessed as reduction in viral yield. It counts as toxicity, cell-based, Vero C1008.
Data set [15] is described as follows: Cytotoxicity against African green monkey Vero cells infected with Pichinde virus assessed as reduction in cell viability by visual analysis. It counts as toxicity, cell-based. As to conditions: chlorocebus sabaeus.
The nature of data set [16]: Cytotoxicity against African green monkey Vero E6 cells infected with JUNV assessed as reduction in cell viability by neutral red dye based analysis. The data set is classed as toxicity, Vero C1008. As to conditions: chlorocebus sabaeus.
A further data set has as its system Pichinde virus. Briefly: Antiviral activity against Pichinde virus infected in African green monkey Vero cells assessed as inhibition of viral replication by visual analysis. It counts as functional, organism-based.
Data set [17] concerns Punta Toro virus. Kind of data set: Antiviral activity against Punta Toro virus infected in African green monkey Vero 76 cells assessed as inhibition of viral replication by neutral red dye based analysis. The data set is classed as functional, organism-based.
Data set [18] has as its system Influenza A virus. Kind of data set: Antiviral activity against Influenza A virus H1N1 infected in dog MDCK cells assessed as reduction in virus yield measured after 3 days by visual analysis. It counts as functional. As to conditions: 72 h, time 3 day.
Data set [19] concerns Oropouche virus. Briefly: Antiviral activity against Oropouche virus infected in African green monkey Vero E6 cells assessed as inhibition of viral replication by visual analysis. It counts as functional, organism-based. To be noted: Vero C1008.
A short description of data set [20]: Selectivity index, ratio of CC50 for cytotoxicity against dog MDCK cells infected with Influenza B virus assessed as reduction in cell viability by visual analysis to EC90 for antiviral activity against Influenza B virus infected in dog MDCK cells assessed as reduction in viral yield by visual analysis. The data set is classed as toxicity, cell-based.
The subject of data set [21] is Influenza A virus. Briefly: Antiviral activity against Influenza A virus H7N9 infected in dog MDCK cells assessed as inhibition of viral replication measured after 15 to 30 mins by neutral red dye based analysis. It counts as functional, organism-based.
A short description of data set [22]: Toxicity in BALB/c mouse infected with influenza A/Ca/04/09 (H1N1) assessed as animal survival at 10 to 300 mg/kg, ip measured every day for 6 days. The data set is classed as organism-based. To be noted: in vivo, 144 h, dose 10-300 mg/kg, time 6 day.
The test system of data set [23] is Influenza A virus. Kind of data set: Antiviral activity against Influenza A virus H1N1 infected in dog MDCK cells assessed as inhibition of viral replication measured after 15 to 30 mins by neutral red dye based analysis. It counts as functional, organism-based.
In data set [24] the test system is Oropouche virus. Briefly: Antiviral activity against Oro-pouche virus infected in African green monkey Vero E6 cells assessed as inhibition of viral replication by neutral red dye based analysis. It counts as functional, organism-based. To be noted: Vero C1008.
Data set [25] in a line: Cytotoxicity against African green monkey Vero E6 cells infected with JUNV assessed as reduction in cell viability by visual analysis. It counts as toxicity, cell-based, Vero C1008. As to conditions: chlorocebus sabaeus.
For data set [26], the system named is Punta Toro virus. Briefly: Antiviral activity against Punta Toro virus infected in African green monkey Vero 76 cells assessed as inhibition of viral replication by visual analysis. It counts as functional, organism-based.
Another data set concerns Influenza B virus. Briefly: Antiviral activity against Influenza B virus infected in dog MDCK cells assessed as inhibition of viral replication measured after 15 to 30 mins by visual analysis. The data set is classed as functional, organism-based.
The subject of a further data set is La Crosse virus. Kind of data set: Antiviral activity against La Crosse virus infected in African green monkey Vero E6 cells assessed as inhibition of viral replication by visual analysis. As to conditions: Vero C1008. The data set is classed as functional, organism-based.
The nature of data set [27]: Selectivity index, ratio of CC50 for cytotoxicity against African green monkey Vero 76 cells infected with La Crosse virus assessed as reduction in cell viability by neutral red dye analysis to EC50 for antiviral activity against La Crosse virus infected in African green monkey Vero 76 cells assessed as reduction in viral replication by neutral red dye analysis. To be noted: read-out: Ratio CC50/EC50. The data set is classed as toxicity, cell-based.

A short description of data set [28]: Cytotoxicity against dog MDCK cells infected with Influenza A virus H1N1 assessed as reduction in cell viability by neutral red dye based analysis. It counts as toxicity, Canis lupus familiaris.

On to `Nc1ncnc2c([C@@H]3N[C@H](CO)[C@@H](O)[C@H]3O)c[nH]c12` [GALIDESIVIR], for which the EC50 was 3000 nM with Marburgvirus, 32 µM in data set [1], 15 µM in the data set with dengue virus type 2 and 1800 nM with Measles morbillivirus. For the same compound, the CC50 in data set [2] and in data set [3] was > 100 µM each time. In addition, the selectivity ratio in data set [4] was > 2.8.

Turning to `Nc1ncnn2c([C@@H]3N[C@H](CO)[C@@H](O)[C@H]3O)ccc12`, the selectivity ratio is 77 in data set [5]; 76 in data set [6]; 38 in data set [8]; 49 in data set [11]; 41 in data set [12]; 37 in data set [13]. The selectivity ratio in [14] was 15; in data set [20], 50; in data set [27], > 240. The EC50 in the data set on Influenza A virus [7] is 320 nM; with Pichinde virus, 380 nM; in the data set with Punta Toro virus [17] it was 270 nM; with Oropouche virus [19], 390 nM; in the data set on Influenza A virus [21], 390 nM; in the data set on Influenza A virus [23] it was 320 nM. The EC50 in the data set with Oropouche virus [24] was 200 nM; in the data set with Punta Toro virus [26], 320 nM; in the data set with Influenza B virus, 320 nM; in the data set with La Crosse virus, < 100 nM. Besides, the CC50 in data set [3] was determined as 24 µM; in data set [10], 32 µM; in data set [15] it was 16 µM; in data set [16], 9.6 µM; in [25], 12 µM; in data set [28] it was 14 µM. Also, in data set [9], the mortality at 144 h is 72%. Moreover, in the data set on Influenza A virus [18], the EC90 came to 100 nM. Further, the Activity result in data set [22] was “Non-Toxic”.
